Test results from patent US7605154B2, “Substituted Thiazolo [4,5-d]pyrimidines as protein kinase inhibitors” (Janssen Pharmaceutica N.V., priority 2005, dated 2009).

target: T1, EGFR (Homo sapiens, UniProt P00533); assay: EGFR Kinase Assay; type: biochemical; details: GST-EGFR, 5 μM ATP
T1 construct: started at nucleotide 2189 (corresponding to amino acid 667) and ended at the termination codon; made in house; host or cells: Sf9 insect cells (baculovirus)
Text: The portion was PCR amplified with primers that added the lambda attB sequences to each end, recombined into an entry vector, then into a, GST destination vector (as described in Gateway Technologies Manual by Invitrogen Corporation, Carlsbad, Calif.).
The destination vector was recombined in the DH10BAC strain of bacteria to produce a bacmid. The bacmid was transfected into Sf 9 cells and the supernatant containing the baculovirus was collected. The GSTEGFR protein was purified using large cultures of Sf 9 cells infected with stock virus. After an appropriate period of time, the cells were collected and lysed. The GSTEGFR was then purified from the lysate on Glutathione-Sepharose columns (as described by Amersham Biosciences, Buckinghamshire, United Kingdom).
The free biotin was separated from the biotinylated polyGluTyr on a gel filtration column.
A mixture of a 10× kinase buffer (500 mM Tris at pH 8.0, 100 mM Magnesium Chloride and 1 mM Sodium Vanadate), DTT (1 mM final from 500 mM stock), ATP (5 μM final from 10 mM stock), biotinylated polyGluTyr (10 μg/μL stock), γ-^33P ATP (10 μCi/μL stock) and water was added to each well (90 μL/well) of a Streptavidin Flashplate (Perkin Elmer, Wellesley, Mass.).
Test compound in 100% DMSO (2 μL) was added to the appropriate wells. Diluted GSTEGFR (1:300 dilution in 50 mM Tris at pH 8.0 and 0.1% bovine serum albumin) (10 μL) was added to the wells to initiate the reactions.
The plates were incubated at 30° C. for 1 hr with shaking. The reacted contents were removed and the plates were sequentially washed three times with a 1×PBS stop buffer (300 μL without Magnesium and Calcium) and 100 mM EDTA. After the final wash, the same stop buffer (200 μL) was added to the wells. The plates were then sealed and read on the TopCount scintillation counter.
Test compounds were assayed in triplicate at 16 concentrations at half-log dilutions starting at 200 uM. A maximum and minimum signal for the assay was determined on each plate. The percent inhibition of a test compound was calculated according to the formula
For a series of test concentrations, the IC50 was derived by graphing percent inhibition against the log of the concentrations tested for a given compound.

T1 sequence (P00533 667-1210 limits assumed): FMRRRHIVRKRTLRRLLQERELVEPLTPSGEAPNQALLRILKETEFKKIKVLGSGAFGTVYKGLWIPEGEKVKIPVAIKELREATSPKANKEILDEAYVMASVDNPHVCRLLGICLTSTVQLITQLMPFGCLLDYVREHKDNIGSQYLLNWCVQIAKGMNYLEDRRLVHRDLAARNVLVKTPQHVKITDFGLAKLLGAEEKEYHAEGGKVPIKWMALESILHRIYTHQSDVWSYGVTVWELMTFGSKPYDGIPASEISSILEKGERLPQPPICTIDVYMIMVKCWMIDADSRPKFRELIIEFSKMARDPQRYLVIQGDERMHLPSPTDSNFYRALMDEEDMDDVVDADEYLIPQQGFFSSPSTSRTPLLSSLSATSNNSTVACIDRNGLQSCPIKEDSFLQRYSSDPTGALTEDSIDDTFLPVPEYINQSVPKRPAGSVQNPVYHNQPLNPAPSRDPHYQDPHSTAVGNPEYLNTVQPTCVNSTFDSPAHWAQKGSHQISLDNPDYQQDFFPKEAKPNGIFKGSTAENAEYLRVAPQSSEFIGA

IC50 | SMILES
918 nM | Fc1ccc(Nc2ncnc3nc(NCCN4CCOCC4)sc23)cc1Cl [Cpd 51, N^7-(3-chloro-4-fluoro-phenyl)-N^2-(2-morpholin-4-yl-ethyl)-thiazolo[4,5-d]pyrimidine-2,7-diamine]
17900 nM | NS(=O)(=O)c1ccc(Nc2nc3ncnc(Nc4ccc(N5CCOCC5)cc4)c3s2)cc1 [Cpd 86, 4-[7-(4-(morpholin-4-yl)-phenylamino)-thiazolo[4,5-d]pyrimidin-2-ylamino]-benzenesulfonamide]
7 nM | Clc1cccc(Nc2ncnc3nc(Nc4ccc(CN5CCOCC5)cc4)sc23)c1 [Cpd 57, N^7-(3-chloro-phenyl)-N^2-(4-morpholin-4-ylmethyl-phenyl)-thiazolo[4,5-d]pyrimidine-2,7-diamine]
2.5 nM | O=S(=O)(NCCO)c1ccc(Nc2nc3ncnc(Nc4ccc(F)c(Cl)c4)c3s2)cc1 [Cpd 39, 4-[7-(3-chloro-4-fluoro-phenylamino)-thiazolo[4,5-d]pyrimidin-2-ylamino]-N-(2-hydroxy-ethyl)-benzenesulfonamide]
44 nM | Fc1ccc(Nc2ncnc3nc(Nc4ccc(N5CCOCC5)cc4)sc23)cc1Cl [Cpd 1, N^7-(3-chloro-4-fluoro-phenyl)-N^2-(4-morpholin-4-yl-phenyl)-thiazolo[4,5-d]pyrimidine-2,7-diamine]
3800 nM | NS(=O)(=O)c1ccc(Nc2nc3ncnc(Nc4ccc(N5CCOCC5)c(Cl)c4)c3s2)cc1 [Cpd 83, 4-[7-(3-chloro-4-(morpholin-4-yl)-phenylamino)-thiazolo[4,5-d]pyrimidin-2-ylamino]-benzenesulfonamide]
6.6 nM | NS(=O)(=O)c1ccc(Nc2nc3ncnc(Nc4cccc(Cl)c4)c3s2)cc1 [Cpd 74, 4-[7-(3-chloro-phenylamino)-thiazolo[4,5-d]pyrimidin-2-ylamno]-benzenesulfonamide]
11 nM | CN(Cc1ccc(Nc2nc3ncnc(Nc4ccc(F)c(Cl)c4)c3s2)cc1)C[C@H]1CCCO1 [Cpd 59, N^7-(3-chloro-4-fluoro-phenyl)-N^2-(4-{[methyl-(2R)-(tetrahydro-furan-2-ylmethyl)-amino]-methyl}-phenyl)-thiazolo[4,5-d]pyrimidine-2,7-diamine]
9.3 nM | NCC1CCN(Cc2ccc(Nc3nc4ncnc(Nc5ccc(F)c(Cl)c5)c4s3)cc2)CC1 [Cpd 22, N^2-[4-(4-aminomethyl-piperidin-1-ylmethyl)-phenyl]-N^7-(3-chloro-4-fluoro-phenyl)-thiazolo[4,5-d]pyrimidine-2,7-diamine]
25.5 nM | N#Cc1ccc(Nc2nc3ncnc(Nc4cccc(Cl)c4)c3s2)cc1 [Cpd 93, 4-[7-(3-chloro-phenylamino)-thiazolo[4,5-d]pyrimidin-2-ylamino]-benzonitrile]
13 nM | CCc1nccn1Cc1ccc(Nc2nc3ncnc(Nc4cccc(Cl)c4)c3s2)cc1 [Cpd 7, N^7-(3-chloro-phenyl)-N^2-[4-(2-ethyl-imidazol-1-ylmethyl)-phenyl]-thiazolo[4,5-d]pyrimidine-2,7-diamine]
36 nM | COc1ccc(Cl)cc1Nc1ncnc2nc(Nc3ccc(CN4CCOCC4)cc3)sc12 [Cpd 56, N^7-(5-chloro-2-methoxy-phenyl)-N^2-(4-morpholin-4-ylmethyl-phenyl)-thiazolo[4,5-d]pyrimidine-2,7-diamine]
5.5 nM | CCc1nccn1Cc1ccc(Nc2nc3ncnc(Nc4ccc(F)c(Cl)c4)c3s2)cc1 [Cpd 30, N^7-(3-chloro-4-fluoro-phenyl)-N^2-[4-(2-ethyl-imidazol-1-ylmethyl)-phenyl]-thiazolo[4,5-d]pyrimidine-2,7-diamine]
15.5 nM | O=S(=O)(c1ccc(Nc2nc3ncnc(Nc4ccc(F)c(Cl)c4)c3s2)cc1)N1CCOCC1 [Cpd 46, N^7-(3-chloro-4-fluoro-phenyl)-N^2-[4-(morpholine-4-sulfonyl)-phenyl]-thiazolo[4,5-d]pyrimidine-2,7-diamine]
187 nM | NS(=O)(=O)c1ccc(Nc2nc3ncnc(Nc4c(F)cccc4F)c3s2)cc1 [Cpd 75, 4-[7-(2,6-difluoro-phenylamino)-thiazolo[4,5-d]pyrimidin-2-ylamino]-benzenesulfonamide]
